What was measured:
[1] = test system: LDL; test: LDL peroxidation lag phase ex vivo (diene conjugates after copper ions); parameters: species or system human; conditions: treatment for one month; preliminary results
Description: Dietary intervention and smoking habits were similar in all groups. Probucol may simply be a more powerful antioxidant than the combination of vitamins. To this regard, preliminary results from the continuous spectrophotometric monitoring of diene conjugates in LDL after the addition of copper ions to the isolated lipoprotein ex vivo (Free Radic Res Commun 1989; 6:67-75) of MVP patients are noteworthy.

[2] = MVP randomized clinical trial, angiographic and clinical outcome; format: in vivo, human; conditions: probucol given alone, compared to placebo
Description: It was not possible to determine with angiography alone whether probucol acted via inhibition of tissue hyperplasia or improvement in vascular remodeling. […] In addition, the invention enables the skilled practitioner to use probucol in conjunction with other percutaneous coronary interventions such as stenting if it is deemed appropriate.
The present invention concerns the IVUS substudy from the MVP restenosis trial. MVP was a double-blind placebo-controlled randomized clinical trial with four study groups. The protocol was approved by the Montreal Heart Institute institutional review board. The MVP study design, inclusion and exclusion criteria have been previously described (N Engl J Med 1997; 365-372). Briefly, patients referred for elective coronary angioplasty were evaluated at least 30 days prior to their scheduled procedure. Eligible patients were asked to provide written informed consent. Patients were eligible if they were scheduled to undergo standard balloon angioplasty on at least one native coronary artery and had at least one de novo target lesion with luminal narrowing of fifty percent or more by caliper measurements.
Beginning thirty days prior to scheduled angioplasty, patients were randomly assigned to receive either probucol alone, multivitamins alone, the combination of probucol and multivitamins, or placebo. Probucol 500 mg or matched placebo was administered twice daily. The multivitamin complex, consisting of vitamin E 700 IU, vitamin C 500 mg and beta-carotene 30,000 IU, or matched placebo was also administered in one tablet twice daily. […] The sequence of contrast injections with the exact degree of angulation was recorded and used for every angiogram. Coronary arteriograms (pre-, post-procedure, and final follow-up) were analyzed together using the Coronary Measurement System (CMS), as previously reported. […] Patients were readmitted for follow-up coronary angiography at five to seven months. […]

[3] = MVP IVUS substudy after balloon angioplasty; format: in vivo, human
Description: Serial intravascular ultrasound (IVUS) examinations have been performed in a consecutive series of patients involved in the MVP trial. By providing tomographic views of coronary arteries with high resolution, IVUS allows quantitative assessment of changes in arterial lumen and wall dimensions. We were therefore able in this study to determine the pathophysiology of coronary restenosis after balloon angioplasty in patients systematically undergoing follow-up IVUS examination and determine the effect of probucol on tissue hyperplasia and vascular remodeling after coronary angioplasty. The present invention concerns the IVUS substudy from the MVP restenosis trial. […] Briefly, patients referred for elective coronary angioplasty were evaluated at least 30 days prior to their scheduled procedure. […] The sequence of contrast injections with the exact degree of angulation was recorded and used for every angiogram. Coronary arteriograms (pre-, post-procedure, and final follow-up) were analyzed together using the Coronary Measurement System (CMS), as previously reported. […] Patients were readmitted for follow-up coronary angiography at five to seven months. […] IVUS imaging was monitored by an experienced cardiologist, but the angioplasty operator was blinded to ultrasound results to avoid altering standard balloon angioplasty practice. […]

CC(C)(Sc1cc(C(C)(C)C)c(O)c(C(C)(C)C)c1)Sc1cc(C(C)(C)C)c(O)c(C(C)(C)C)c1 [probucol, 4,4′-([1-methylethylidene)bis(thio)]bis-[2,6-bis(1,1-dimethylethyl)phenol]]
protection against LDL oxidation (lag phase for LDL peroxidation) [1]: significantly greater protection against LDL oxidation than vitamins alone or the combination of probucol and vitamins
reduction of angiographic lumen loss [2]: sixty-eight percent
reduction of restenosis rate per segment [2]: forty-seven percent
reduction of the need for repeat angioplasty at 6 month [2]: fifty-eight percent
reduction in lumen loss assessed by IVUS ([3]; compared to non-probucol treated patients): 0.79 mm^2
reduction in lumen loss assessed by IVUS ([3]; probucol given alone compared to the placebo group only): 1.06 mm^2
